Test results published in patent US20220290196A1, “GENETICALLY ENGINEERED MICROBES AND BIOSYNTHETIC METHODS” (The Regents of the University of California, priority 2019, published 2022).
Where “and” joins values, the source holds several entries; their conditions need not be identical. Identical values can stand only once. Like-named read-outs stand apart in the source and are kept apart here.

Columns and labels:
[1] = system: Streptomyces rugosporus LL-42D005 PyrH (C5 tryptophan halogenase), SEQ ID NO: 36; details: cited from earlier work
[2] = system: Pseudomonas fluorescens PrnA (tryptophan halogenase), SEQ ID NO: 43; details: cited from earlier work
[3] = system: Kutzneria sp. 744 KtzR (tryptophan halogenase), SEQ ID NO: 40; details: cited from earlier work
[4] = system: Streptomyces toxytricini NRRL 15443 SttH (tryptophan halogenase), SEQ ID NO: 39; details: cited from earlier work
[5] = system: Lechevalieria aerocolonigenes ATCC 39243 RebH (tryptophan halogenase), SEQ ID NO: 44; details: cited from earlier work
[6] = molecular target: T1, Saccharomonospora sp. CNQ-490 Tar14 (flavin-dependent tryptophan halogenase), wild type, SEQ ID NO: 3 (expressed SEQ ID NO: 4); expressed with cleaved His tag SE (Saccharomonospora piscinae, UniProt W5VG40); experiment: Kinetic characterization of Tar14-catalyzed chlorination of L-tryptophan; format: biochemical; details: Tar14, L-Trp chlorination, 30° C., pH 7.6
T1 construct: flavin reductase Tar15 and PtdH as helper enzymes
T1 sequence (W5VG40 1-534): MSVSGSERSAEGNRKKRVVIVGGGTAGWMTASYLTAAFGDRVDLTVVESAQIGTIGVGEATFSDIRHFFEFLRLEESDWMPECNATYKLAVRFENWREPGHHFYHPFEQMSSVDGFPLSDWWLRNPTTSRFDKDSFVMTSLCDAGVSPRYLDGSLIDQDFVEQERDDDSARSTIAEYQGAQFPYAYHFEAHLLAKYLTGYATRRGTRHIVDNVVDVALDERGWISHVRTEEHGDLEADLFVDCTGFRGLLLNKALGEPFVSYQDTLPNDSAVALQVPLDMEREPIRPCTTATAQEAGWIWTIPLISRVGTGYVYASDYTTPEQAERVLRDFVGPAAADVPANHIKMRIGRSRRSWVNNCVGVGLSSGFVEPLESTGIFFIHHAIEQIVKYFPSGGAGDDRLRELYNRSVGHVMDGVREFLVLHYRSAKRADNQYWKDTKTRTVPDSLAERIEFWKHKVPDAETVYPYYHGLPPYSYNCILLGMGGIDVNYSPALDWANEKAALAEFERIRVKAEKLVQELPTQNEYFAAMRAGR
Text: To determine kinetic parameters for Tar14-catalyzed chlorination of L-tryptophan, phenol was first tested as an internal standard for quantification of the product (L-6-chlorotryptophan) formation. An HPLC method that gives separation of substrate/product/internal standard peaks (method 4) was developed (FIGS. 10A and 108). It was also verified that activity of Tar14 was not affected by the presence of phenol in the reaction mixture. Using commercial standard of L-6-chlorotryptophan and phenol mixed at known concentrations, a calibration curve was built (FIGS. 10A and 10B).
Tar14 reaction mixture of total volume 100 μL in 1.5 mL Eppendorf tube was composed of the following components:
Buffer (10 mM Tris, 10% glycerol, pH 7.6) up to 100 μL
Tar14 (added last): 2.5 μM
The reactions were incubated at 30° C. for 5, 10, 25, 45, 60, 120, and 240 min, after which the assays were quenched by addition of equal volume of HPLC grade methanol and frozen at −70° C. till further analysis by HPLC. All assays were performed in triplicates for each substrate concentration and every time point. In parallel, for each time point and substrate concentration, assays with no added phenol and with no added enzyme were used as controls.
Product formation was quantitated by calculating the ratio of peak areas of product to internal standard and fitting that value to a calibration curve. […]

[7] = system: Streptomyces violaceusniger SPC6 Th-Hal (C6 tryptophan halogenase), SEQ ID NO: 38; details: cited from earlier work

## N[C@@H](Cc1c[nH]c2ccccc12)C(=O)O [L-Trp, L-tryptophan]
[1]
  Km: 15.2 ± 4.2 µM
  kcat: 0.04 ± 0.0067 s⁻¹
[2]
  Km: 20.7 ± 0.1 µM
  kcat: 0.0183 ± 0.0017 s⁻¹
[3]
  Km: 34.1 ± 2.1 µM
  kcat: 0.0067 ± 0.0017 s⁻¹
[4]
  Km: 25.3 ± 3.2 µM
  kcat: 0.0283 ± 0.0017 s⁻¹
[5]
  Km: 28.7 ± 1.3 µM
  kcat: 0.01 ± 0.0017 s⁻¹
[6]
  kcat: 0.0067 s⁻¹ and 0.007 ± 0.00083 s⁻¹
[7]; 30° C.
  Km: 12.2 ± 1.8 µM
  kcat: 0.0717 ± 0.0083 s⁻¹
[7]; 45° C.
  Km: 20.4 ± 1.3 µM
  kcat: 0.085 ± 0.0067 s⁻¹
